Test results reported in US20260072027A1, “Peptides And Method” (Queen Mary University of London, priority 2022, published 2026).
Several values for one entry are separate records, joined by “and”; a condition that tells them apart may be missing. Identical values can stand only once. Entries after “also recorded” stand apart in the source; their conditions may differ. Where no end group is shown, it is not given here.

Experiments:
[1] = system: CD4+ and CD8+ T-cells and IgG autoantibodies; assay: Overlap of CD4+, CD8+ and IgG antibody responses (Venn analysis); assay type: cell-based, human; conditions: type 1 diabetes; for patients with overlapping (concordant) CD4+ and CD8+ responses to the peptide: Study cohort 2, SI >1
Excerpt: FIG. 13. Venn diagrams of CD4^+, CD8^+ and antibody response to oxPTM-INSPs. Panels a, b, and c show the overlap between IgG autoantibody and T-cell (CD4^+ and CD8^+) responses specific to oxPTM-INSP-3 (a), Nt-INSP-4 (b) and oxPTM-INSP-6 (c). Panels d, e, and f display the overlap between T-cell responses to the three insulin peptides and IgG to oxPTM-INS modified by hydroxyl radical (^●OH-INS). […] There is concordance between reactivity to oxPTM-INS and CD4^+ and CD8^+ reactivity for all three tested peptides (7/17, 8/18 and 8/18 for oxPTM-INSP-3, Nt-INSP-4 and oxPTM-INSP-6, respectively). The stimulatory index >1 was used for definition of positive T-cell response.
Correlation between T-cell stimulation and antibody response. Subjects evaluated for T-cell stimulation were also tested for antibody reactivity to either oxPTM-INSPs or oxidised intact insulin (oxPTM-INS) to assess correlations between humoral and cellular responses (FIG. 11-e-f). In study cohort 2, antibody reactivity to oxPTM-INSP-6 was the highest as observed in the study cohort 1, with 11/18 (61.1%) binding to at least one oxPTM-INSP-6 derivatives (p<0.001 oxPTM-INSP-6 vs. Nt-INSP-6). Detailed analysis of autoantibody response in this cohort is described in the ESM (ESM results Antibody binding to oxPTM-INSPs in Study cohort 2).
We then analysed the extent of correlation between CD4^+, CD8^+ and IgG antibody responses. […] The CD4^+ T cell response to Nt-INSP-4 frequently overlapped with CD8^+ (13/18 [72.2%]), and to a lesser extent to antibodies (7/18 [38.8%]). […] CD4^+ response to oxPTM-INSP-6 was linked to both CD8^+ and/or antibodies: […] patients had concordant CD4^+ and CD8^+ responses, while 9/18 (50%) patients had concordant CD4^+ and antibody responses. […] CD4^+ T-cell stimulation to Nt-INSP-4, oxPTM-INSP-6 and oxPTM-INSP-3 was associated with antibody reactivity to oxPTM-INS in 8/18 (44.4%), 8/18 (44.4%) and 7/18 (38.9%) type 1 diabetes patients.

[2] = system: autoantibodies to oxPTM-INS; assay: Competitive displacement ELISA, plate coated with oxidised insulin; assay type: binding, human; conditions: for inhibition of type 1 diabetes serum binding to oxPTM-INS (in words): sera pre-incubated with peptide competitor
Method: A competitive displacement assay was performed to map the exact epitope, namely the exact amino acid sequence binding specificities and to test the binding to native peptides versus oxidised insulin peptides. The binding to the peptide was done by direct ELISA on the native or modified peptides or by competition ELISA. Initially native synthetic peptide was oxidised by exposing to 0.05 mM CuCl2; 90 mM H2O2; 10 mM NaOCl. Native and modified peptides were fractionated by AKTA to evaluated changes in molecular profile. AKTA fractions were then tested by ELISA for reactivity (FIGS. 2 and 3). We next perform competition ELISA with the native peptides and peptides exposed to 0.05 mM CuCl2; 90 mM H2O2; 10 mM NaOCl. Serum samples were pre-incubated with either native insulin peptides or oxidised insulin peptides. Finally, based on the amino acid sequence of the identified peptides we predicted the amino acids that would be oxidised by ^●OH and HOCl and designed synthetic peptides that contain the oxidised amino acids in the synthesis. Synthetic peptides were produced by standard commercially available methods, specifically by Peptide Protein Research Ltd. Briefly, peptide synthesis was performed by automated solid phase peptide synthesis (SPPS), which was followed by purification. Each individual amino acid was added to the growing chain according to the sequence. Where specified, dihydroxyphenylalanine was added to replace Tyr or cysteate were added to replace Cys. Similarly, these peptides were tested by competition ELISA. The table below describe the different competition ELISA performed:
Serum samples from children with type 1 diabetes were pre-incubated with the synthetic peptides before they were added to the native insulin or oxidised that were previously coated on the ELISA plate. If the antibodies in the serum sample bind to the peptide they will no longer bind to the insulin or oxidised insulin on the plate-competition ELISA. 1:200 dilutions of serum samples from T1D serum samples were pre-incubated for 2 hr at room temperature with the various peptides as shown in the table above. After incubation, serum/peptide mix was added to the ELISA plate previously coated overnight with either native insulin or oxidised insulin for an additional 2 hr incubation. Plates were then washed in a plate washer three times with PBS 0.05% tween. After washing, 100 ul of anti-human IgG diluted 1:1000 in 1% milk-PBS 0.05% tween were added for additional 1 hour and 30 min incubation. After washing, ELISA was developed by adding 100 ul of TMB (10 mg/ml in DMSO) in 10 ml of 0.1 M sodium acetate plus 2 ul of H2O2. Reaction was stopped by adding 0.5 M H2SO4 (usually 20 min for insulin ELISA).
To assess the binding specificity of serum samples to identified peptides, a competitive ELISA was performed. The ELISA was carried out following the method described above, except that the serum samples were pre-incubated for 2 h with and without 10 μg/ml peptides as competitors, before adding the serum samples to the insulin coated ELISA plate.

Row | Substance | concordance between reactivity to oxPTM-INS and CD4+ and CD8+ reactivity (patients/patients) ([1]; Study cohort 2) | patients with CD4+ T-cell stimulation associated with antibody reactivity to oxPTM-INS ([1]; Study cohort 2) | patients with CD4+, CD8+ T-cells to the peptide and autoantibodies to oxPTM-INS simultaneously ([1]; Study cohort 2) | patients with concordant CD4+ and antibody responses to the peptide ([1]; Study cohort 2) | patients with concordant CD4+, CD8+ and IgG antibody response to the peptide ([1]; Study cohort 2) | patients with overlapping (concordant) CD4+ and CD8+ responses to the peptide [1] | inhibition of type 1 diabetes serum binding to oxPTM-INS (in words) ([2]; listed as Nt-INSP-4) | inhibition of type 1 diabetes serum binding to oxPTM-INS (in words) [2] | reduced binding to oxidised whole insulin ([2]; type 1 diabetes sera pre-incubated with peptide, listed as Oxidised peptide 3)
1 | LVEALYLVCGERGFFYTPKT [insulin B:11-30 native peptide] | 8/18 | 44.4% | 27.8% | 38.8% | 22.2% | 72.2% | comparable inhibition as oxPTM-INSP-4; also recorded: comparable inhibition compared to oxPTM-INSP-4; also recorded: blocked type 1 diabetes serum binding to oxPTM-INS like oxPTM-INSP-4 |  | 
2 | oxPTM-INSP-3: oxidised forms of insulin peptide 3 (A:12-21), in house oxidised or in silico derivatives (SLYQLENYCN; not fully specified (N-terminus); also: oxidised forms, in house oxidised or in silico derivatives, modified residues not defined) | 7/17 | 38.9% | 22.2% |  | 5.5% | 50.0% |  | strongly inhibited binding to oxPTM-INS; also recorded: able to inhibit the binding | 35-80% and 40-80%
